Source: article PMC6321453, “Identification of Pinocembrin as an Anti-Glycation Agent and α-Glucosidase Inhibitor from Fingerroot (Boesenbergia rotunda): The Tentative Structure–Activity Relationship towards MG-Trapping Activity” (Molecules, 2018)

Assays:
[1] = test system: MG-derived AGEs formation in BSA; experiment: In vitro glycation of BSA by MG-BSA assay (fluorescent-AGEs formation); type: biochemical, bovine; conditions: compound 0.1 mM, BSA 10 mg/mL, MG 0.25 mM, PBS pH 7.4, 37 °C, 24 h; fluorescence ex 355/em 460 nm
Procedure: All isolated compounds were evaluated for their inhibitory effect on the fluorescent-AGEs formation after incubation with bovine serum albumin (BSA) and MG for 24 h (Figure 2).
Figure 2 Advanced glycation-end products (AGEs) inhibition activity of aminoguanidine (0.1 mM) and isolated compounds (0.1 mM) on MG-derived AGEs formation inhibition in BSA. The results are presented as mean ± SEM for n = 3. Different letters show significant differences analyzed by ANOVA with Duncan’s post hoc test (p < 0.05).
Glycated BSA was carried out according to our previous study. The mixture of bovine serum albumin (BSA, 10 mg/mL), isolated compound (0.1 mM in dimethyl sulfoxide, DMSO), and methylglyoxal (MG, 0.25 mM) in 0.1 M phosphate buffer solution (PBS, pH 7.4) was incubated at 37 °C for 24 h. The glycated BSA was monitored by a spectrofluorometer (Fluroskan Ascent FL, Thermo Scientific, Barrington, IL, USA) at the excitation wavelength of 355 nm, and an emission wavelength of 460 nm. Aminoguanidine hydrochloride (AG) was utilized as a positive control. The percentage inhibition of MG-derived AGE formation was calculated by utilizing the formula below:(1) Inhibition of AGEs formation (%)=(FC−FCB)−(FS−FSB)/FC−FCB×100 where FC and FCB are the fluorescent intensities of the control with and without MG, respectively. FS and FSB are the fluorescent intensities of the sample with and without MG, respectively.

[2] = Direct MG-trapping activity by HPLC; conditions: compound 0.1 mM, MG 0.1 mM, PBS pH 7.4, 37 °C, 24 h; HPLC of 2-MQ
Procedure: Figure 3 The percentage of MG-trapping abilities of isolated compounds (0.1 mM). The results are presented as the mean ± SEM for n = 3. Different letters show significant differences, as analyzed by ANOVA, with Duncan’s post hoc test (p < 0.05).
The ability of the isolated compounds to trap MG was carried out, according to our previous report. The reaction mixture of MG (0.1 mM), isolated compound (0.1 mM in DMSO) and 0.1 M PBS (pH 7.4) was incubated at 37 °C for 24 h. The quantitative amount of the remaining MG was determined by derivatization with o-phenylenediamine (o-PDA) to convert to 2-methylquinoxaline (2-MQ). Then, 2-MQ obtained was measured by HPLC using 5-methylquinoxaline (5-MQ) as an internal standard. The mixture comprising 100 µL of o-PDA (20 mM) and 100 µL of 5-MQ (5 mM) was added into the sample vials, and incubated at 25 °C for 30 min. HPLC analysis was performed on a Shimadzu HPLC system (binary pump; model LC-10A, an auto-injector; model SIL-10A, and a UV detector; model SPD-10A) equipped with an Inertsil ODS-3 V C18 column (4.6 × 150 mm, 5 μm particle diameter). The column was flushed with a mixture of 1:1 methanol–water at a flow rate of 1 mL/min, and a 10 μL of injection volume. The overall running time was 15 min, and the wavelength used for detection was 315 nm. The area under each chromatogram peak, 2-MQ and 5-MQ, was calculated with an LC solution program. Peak integrality proportions of 2-MQ to 5-MQ were utilized for quantitative examination. The amount of MG was calculated by utilizing the standard curve of 2-MQ/5-MQ proportion. AG was utilized as a positive control. The percentage MG-trapping was calculated utilizing the formula below:(2) %MG−trapping=100−[Amount of (MG in sample−MG in positive control)/Amount of MG in positive control×100]

rat intestinal maltase = experiment: α-Glucosidase inhibitory activity and kinetic study, maltase; type: biochemical
Procedure: (§1) The α-glucosidase (from rat intestine) inhibitory effect was evaluated, utilizing our previous study. Rat intestinal maltase and sucrase, a crude enzyme solution, was prepared from rat intestinal acetone powder. A solution of rat intestinal acetone powder (1 g) in 0.9% NaCl solution (30 mL) was centrifuged (12,000 rpm) for 30 min, and then the aliquot obtained was used for the assay. The mixture of 10 μL of isolated compounds (1 mg/mL in DMSO), 30 μL of the phosphate buffer (0.1 M, pH 6.9), and 20 μL of the substrate solution (10 mM for maltose and 100 mM for sucrose in phosphate buffer) was added to a glucose assay kit (80 μL) and the crude enzyme solution (20 μL), which then was incubated at 37 °C for 10 min and 40 min for maltose and sucrose, respectively. The enzymatic activity was measured at 503 nm by using a microplate reader, model 3550 UV. The percentage inhibition was calculated by [(Ac − As)/Ac] × 100, where Ac is the absorbance of the control, and As is the absorbance in the presence of sample. The results were reported as the IC50 value, and the experiment was carried out in triplicate. Acarbose® was used as a standard control.
(§2) The kinetic analysis of pinocembrin was determined by using an increasing concentration of substrates maltose (2–10 mM) and sucrose (20–100 mM), and a Lineweaver–Burk plot was performed to determine the type of inhibition. The secondary plot was utilized to determine the Ki and Ki′ values, which were replotted between the slope and intercept from the Lineweaver–Burk plot vs the various concentrations of pinocembrin.

rat intestinal sucrase = molecular target: T1, rat intestinal sucrase (Rattus norvegicus, UniProt P23739); experiment: α-Glucosidase inhibitory activity and kinetic study, sucrase; type: biochemical
T1 construct: a crude enzyme solution, was prepared from rat intestinal acetone powder; from tissue; host or cells: rat intestine (acetone powder, crude extract)
T1 sequence (P23739 whole entry): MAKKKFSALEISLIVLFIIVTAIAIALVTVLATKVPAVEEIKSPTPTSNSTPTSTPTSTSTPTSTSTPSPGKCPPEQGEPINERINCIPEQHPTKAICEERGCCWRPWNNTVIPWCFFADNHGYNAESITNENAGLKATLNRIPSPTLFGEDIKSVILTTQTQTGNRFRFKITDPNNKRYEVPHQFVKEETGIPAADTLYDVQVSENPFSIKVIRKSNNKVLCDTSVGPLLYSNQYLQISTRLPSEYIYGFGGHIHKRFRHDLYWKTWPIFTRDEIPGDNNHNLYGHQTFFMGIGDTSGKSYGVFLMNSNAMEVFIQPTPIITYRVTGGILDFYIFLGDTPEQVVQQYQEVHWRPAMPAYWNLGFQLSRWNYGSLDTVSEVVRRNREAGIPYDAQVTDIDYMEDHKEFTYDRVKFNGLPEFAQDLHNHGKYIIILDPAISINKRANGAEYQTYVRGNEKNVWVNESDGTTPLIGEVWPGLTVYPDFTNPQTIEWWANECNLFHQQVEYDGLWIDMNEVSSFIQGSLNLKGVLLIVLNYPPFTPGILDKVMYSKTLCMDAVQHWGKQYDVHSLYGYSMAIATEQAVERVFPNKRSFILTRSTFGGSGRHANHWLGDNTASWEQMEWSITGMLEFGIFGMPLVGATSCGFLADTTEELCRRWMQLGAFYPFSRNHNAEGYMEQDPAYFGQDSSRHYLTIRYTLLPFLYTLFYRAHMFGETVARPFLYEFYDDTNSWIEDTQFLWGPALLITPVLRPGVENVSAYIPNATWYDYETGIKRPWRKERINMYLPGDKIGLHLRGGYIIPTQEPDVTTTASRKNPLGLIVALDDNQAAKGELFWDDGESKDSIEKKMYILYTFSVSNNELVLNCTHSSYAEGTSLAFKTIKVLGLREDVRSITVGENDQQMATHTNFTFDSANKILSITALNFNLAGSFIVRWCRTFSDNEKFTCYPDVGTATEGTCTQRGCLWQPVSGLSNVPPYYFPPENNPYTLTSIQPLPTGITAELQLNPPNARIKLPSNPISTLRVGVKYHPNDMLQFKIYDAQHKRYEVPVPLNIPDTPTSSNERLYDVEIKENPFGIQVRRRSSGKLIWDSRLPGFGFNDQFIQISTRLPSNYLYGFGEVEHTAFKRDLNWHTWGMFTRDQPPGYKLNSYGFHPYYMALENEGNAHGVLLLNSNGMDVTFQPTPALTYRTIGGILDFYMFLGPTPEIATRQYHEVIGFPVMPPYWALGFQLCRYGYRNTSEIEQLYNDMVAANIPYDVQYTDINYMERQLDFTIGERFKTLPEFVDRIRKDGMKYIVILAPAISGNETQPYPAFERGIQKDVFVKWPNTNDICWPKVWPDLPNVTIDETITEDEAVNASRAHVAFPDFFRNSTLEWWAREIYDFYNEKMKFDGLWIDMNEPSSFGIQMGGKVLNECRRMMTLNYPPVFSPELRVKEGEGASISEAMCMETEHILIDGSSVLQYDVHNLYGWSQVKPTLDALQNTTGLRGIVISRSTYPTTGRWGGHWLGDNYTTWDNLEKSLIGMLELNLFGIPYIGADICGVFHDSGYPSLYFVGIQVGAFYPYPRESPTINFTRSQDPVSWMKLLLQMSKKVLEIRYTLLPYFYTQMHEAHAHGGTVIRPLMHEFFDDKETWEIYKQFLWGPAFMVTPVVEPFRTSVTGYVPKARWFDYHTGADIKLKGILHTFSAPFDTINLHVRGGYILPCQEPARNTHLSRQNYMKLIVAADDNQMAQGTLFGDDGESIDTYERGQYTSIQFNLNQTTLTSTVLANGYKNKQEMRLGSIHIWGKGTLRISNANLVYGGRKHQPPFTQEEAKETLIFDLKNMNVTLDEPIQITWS
Procedure: as §1, §2

[3] = Direct MG-trapping activity by HPLC; conditions: against methylglyoxal

Row | Compound | Inhibition of MG-derived AGEs formation [1] [%] | MG-trapping activity, percentage related to AG (100%) [2] [%] | further results
1 | Cl.N=C(N)NN [AG, Aminoguanidine hydrochloride, reference compound] | 28 | 100 | –
2 | O=C1C[C@@H](c2ccccc2)Oc2cc(O)cc(O)c21 [compound 1, pinocembrin] | 38 | 109 | Inhibition Type (rat intestinal maltase; maltase, Lineweaver–Burk plot): mixed-type; Ki (rat intestinal maltase; maltase, dissociation constant of EI complex, secondary plot of slope): 93 µM; Ki (rat intestinal maltase; maltase, dissociation constant of ESI complex, secondary plot of intercept): 138 µM; IC50 (rat intestinal maltase; rat intestinal maltase, substrate maltose, read-out: IC50 against maltase): 350 ± 21 µM; IC50 (rat intestinal sucrase; rat intestinal sucrase, substrate sucrose, read-out: IC50 against sucrose): 390 ± 20 µM; Inhibition Type (rat intestinal sucrase; sucrase, Lineweaver–Burk plot): mixed-type inhibition; Ki (rat intestinal sucrase; sucrase, dissociation constant of EI complex): 51 µM; Ki (rat intestinal sucrase; sucrase, dissociation constant of ESI complex): 253 µM; EC50 [3]: 63.2 ± 10.1 µM
3 | COc1cc(O)c2c(c1)O[C@H](c1ccccc1)CC2=O [compound 2, pinostrobin] | 19 | 5 | –
4 | COc1cc(O)cc(O)c1C(=O)/C=C/c1ccccc1 [compound 4, cardamomin] | 44 | 28 | –
5 | COc1cc2c(c(O)c1C(=O)/C=C/c1ccccc1)C=CC(C)(CCC=C(C)C)O2 (stereo not drawn) [compound 5, boesenbergin B] | 39 | 19 | –
6 | COc1cc(O)c(C(=O)[C@@H]2[C@H](CC=C(C)C)C(C)=CC[C@H]2c2ccccc2)c(O)c1 [compound 6, panduratin A] | 43 | 60 | –
7 | COc1cc(O)cc(O)c1C(=O)C1C(CC=C(C)C)C(C)=CCC1c1ccccc1 (stereo not drawn) [compound 7, isopanduratin A] | 36 | 9 | –
8 | COc1cc(/C=C/c2ccccc2)oc(=O)c1 [compound 8, demethoxyyangonin] | 46 | 23 | –
9 | alpinetin [compound 3] | 50 | 14 | –
